Measurements: patent US10173991B2, “Sulfone amide linked benzothiazole inhibitors of endothelial lipase” (BRISTOL-MYERS SQUIBB COMPANY, priority 2014, dated 2019)

What follows are compounds tested against Endothelial lipase (EL) (Homo sapiens (Human), UniProt Q9Y5X9) (assay: Endothelial lipase (EL) enzymatic assay with fluorescent substrate A10070 in DMPG vesicles).
Type: biochemical
In short: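 Vesicles prepared: A10070 dried with DMPG, resuspended in HEPES pH 8.0/NaCl/EDTA, sonicated on ice. Enzyme incubated with compound 30 min at 37° C. Reaction started with 1:10 diluted vesicles. Fluorescence (490/530 nm) followed 60 min; slope from 300–900 secs gives rate.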

Sequence of Endothelial lipase (EL) (Q9Y5X9 21-500): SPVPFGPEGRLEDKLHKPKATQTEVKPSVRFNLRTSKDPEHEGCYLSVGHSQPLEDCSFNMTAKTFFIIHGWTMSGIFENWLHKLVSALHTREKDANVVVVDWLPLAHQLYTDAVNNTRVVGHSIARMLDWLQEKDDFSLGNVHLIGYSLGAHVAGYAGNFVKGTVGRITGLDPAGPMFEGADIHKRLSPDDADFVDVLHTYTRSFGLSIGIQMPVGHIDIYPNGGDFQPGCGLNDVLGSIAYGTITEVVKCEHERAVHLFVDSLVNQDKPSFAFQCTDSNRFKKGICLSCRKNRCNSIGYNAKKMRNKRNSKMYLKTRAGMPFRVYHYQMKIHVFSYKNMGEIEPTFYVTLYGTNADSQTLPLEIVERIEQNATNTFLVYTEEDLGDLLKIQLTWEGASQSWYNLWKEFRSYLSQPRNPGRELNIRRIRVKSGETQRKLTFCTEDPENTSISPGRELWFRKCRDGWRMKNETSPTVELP

Row | SMILES | IC50
1 | COCCS(=O)(=O)C(C(=O)NCC(=O)NC1CC1)c1nc2cc(-c3ccc(CNC(C)=O)cc3)ccc2s1 (stereo not shown) [Example 332, N-[(cyclopropyl-carbamoyl)methyl]-2-{5-[4-(acetamidomethyl)phenyl]-1,3-benzothiazol-2-yl}-2-(2-methoxyethane-sulfonyl)acetamide] | 10 nM
2 | CS(=O)(=O)C(C(=O)NCC(=O)NC1CC1)c1nc2cc(-c3ccc(F)nc3)ccc2s1 (stereo not shown) [Example 333, N-[(cyclopropyl-carbamoyl)methyl]-2-[5-(6-fluoropyridin-3-yl)-1,3-benzothiazol-2-yl]-2-methanesulfonyl-acetamide] | 13 nM
3 | COCCNC(=O)c1ccc(-c2ccc3sc(C(C(=O)NCC(=O)NC4CC4)S(=O)(=O)CCOC)nc3c2)cc1 (stereo not shown) [Example 334, 4-[2-({[(cyclopropyl-carbamoyl)methyl]carbamoyl}(2-methoxyethane-sulfonyl)methyl)-1,3-benzothiazol-5-yl]-N-(2-methoxyethyl) benzamide] | 15 nM
4 | COCCS(=O)(=O)C(C(=O)NCC(=O)NC1CC1)c1nc2cc(-c3ccc(C(=O)N4CCOCC4)cc3)ccc2s1 (stereo not shown) [Example 337, N-[(cyclopropyl-carbamoyl)methyl]-2-(2-methoxyethane-sulfonyl)-2-{5-[4-(morpholine-4-arbonyl)phenyl]-1,3-benzothiazol-2-yl}acetamide] | 38 nM
5 | COCCS(=O)(=O)C(C(=O)NCC(=O)NC1CC1)c1nc2cc(-c3ccc(COC)cc3)ccc2s1 (stereo not shown) [Example 338, N-[(cyclopropyl-carbamoyl)methyl]-2-(2-methoxyethane-sulfonyl)-2-{5-[4-(methoxymethyl)phenyl]-1,3-benzothiazol-2-yl}acetamide] | 42 nM
6 | COCCS(=O)(=O)C(C(=O)NCC(=O)NC1CC1)c1nc2ccc(-c3cnc(Cl)n3C)cc2s1 (stereo not shown) [Example 345, 2-[6-(2-chloro-1-methyl-1H-imidazol-5-yl)-1,3-benzothiazol-2-yl]-N-[(cyclopropyl-carbamoyl)methyl]-2-(2-methoxyethane-sulfonyl)acetamide] | 135 nM
7 | COCCS(=O)(=O)C(C(=O)NCC(=O)NCCOC(C)C)c1nc2cc(-c3ccc(F)nc3)c(F)cc2s1 (stereo not shown) [Example 352, 2-[6-fluoro-5-(6-fluoropyridin-3-yl)-1,3-benzothiazol-2-yl]-2-(2-methoxyethane-sulfonyl)-N-({[2-(propan-2-yloxy)ethyl]carbamoyl}methyl)acetamide] | 14 nM
8 | COCCS(=O)(=O)C(C(=O)NCC(=O)NCCOC(C)C)c1nc2cc(-c3ccn(C)c(=O)c3)c(F)cc2s1 (stereo not shown) [Example 353, 2-[6-fluoro-5-(1-methyl-2-oxo-1,2-dihydropyridin-4-yl)-1,3-benzothiazol-2-yl]-2-(2-methoxyethane-sulfonyl)-N-({[2-(propan-2-yloxy)ethyl]carbamoyl}methyl)acetamide] | 34 nM
9 | COCCS(=O)(=O)C(C(=O)NCC(=O)NCCOC(C)C)c1nc2cc(-c3ccc(=O)n(C)c3)c(F)cc2s1 (stereo not shown) [Example 355, 2-[6-fluoro-5-(1-methyl-6-oxo-1,6-dihydropyridin-3-yl)-1,3-benzothiazol-2-yl]-2-(2-methoxyethane-sulfonyl)-N-({[2-(propan-2-yloxy)ethyl]carbamoyl}methyl)acetamide] | 36 nM
10 | COCCS(=O)(=O)C(C(=O)NCC(=O)NCCOC(C)C)c1nc2cc(-c3cnc(C)nc3)c(F)cc2s1 (stereo not shown) [Example 356, 2-[6-fluoro-5-(2-methylpyrimidin-5-yl)-1,3-benzothiazol-2-yl]-2-(2-methoxyethane-sulfonyl)-N-({[2-(propan-2-yloxy)ethyl]carbamoyl}methyl)acetamide] | 55 nM
11 | COCCS(=O)(=O)C(C(=O)NCC(=O)NCCOC(C)C)c1nc2cc(-c3ccnn3C)c(F)cc2s1 (stereo not shown) [Example 357, 2-[6-fluoro-5-(1-methyl-1H-pyrazol-5-yl)-1,3-benzothiazol-2-yl]-2-(2-methoxyethane-sulfonyl)-N-({[2-(propan-2-yloxy)ethyl]carbamoyl}methyl)acetamide] | 49 nM
12 | COCCS(=O)(=O)C(C(=O)NCC(=O)NCCOC(C)C)c1nc2cc(-c3cnnc(C)c3)c(F)cc2s1 (stereo not shown) [Example 358, 2-[6-fluoro-5-(6-methylpyridazin-4-yl)-1,3-benzothiazol-2-yl]-2-(2-methoxyethane-sulfonyl)-N-({[2-(propan-2-yloxy)ethyl]carbamoyl}methyl)acetamide] | 60 nM

Results, then the compound that gave them:

Row | IC50 | SMILES
13 | 16 nM | COCCS(=O)(=O)C(C(=O)NCC(=O)NC1CC1)c1nc2cc(-c3cncnc3)ccc2s1 (stereo not shown) [Example 335, N-[(cyclopropyl-carbamoyl)methyl]-2-(2-methoxyethane-sulfonyl)-2-[5-(pyrimidin-5-yl)-1,3-benzothiazol-2-yl]acetamide]
14 | 21 nM | COCCS(=O)(=O)C(C(=O)NCC(=O)NC1CC1)c1nc2cc(-c3ccn(C)c(=O)c3)ccc2s1 (stereo not shown) [Example 336, N-[(cyclopropyl-carbamoyl)methyl]-2-(2-methoxyethane-sulfonyl)-2-[5-(1-methyl-2-oxo-1,2-dihydropyridin-4-yl)-1,3-benzothiazol-2-yl]acetamide]
15 | 215 nM | COCCS(=O)(=O)C(C(=O)NCC(=O)NC1CC1)c1nc2cc(-c3ccccc3)ccc2s1 (stereo not shown) [Example 339, N-[(cyclopropyl-carbamoyl)methyl]-2-(2-methoxyethane-sulfonyl)-2-(5-phenyl-1,3-benzothiazol-2-yl)acetamide]
16 | 9 nM | COCCS(=O)(=O)C(C(=O)NCC(=O)NC1CC1)c1nc2ccc(-c3ccc4c(c3)CNC4=O)cc2s1 (stereo not shown) [Example 340, N-[(cyclopropyl-carbamoyl)methyl]-2-(2-methoxyethane-sulfonyl)-2-[6-(1-oxo-2,3-dihydro-1H-isoindol-5-yl)-1,3-benzothiazol-2-yl]acetamide]
17 | 11 nM | COCCS(=O)(=O)C(C(=O)NCC(=O)NC1CC1)c1nc2ccc(-c3ccc4c(c3)COC4=O)cc2s1 (stereo not shown) [Example 341, N-[(cyclopropyl-carbamoyl)methyl]-2-(2-methoxyethane-sulfonyl)-2-[6-(1-oxo-1,3-dihydro-2-benzofuran-5-yl)-1,3-benzothiazol-2-yl]acetamide]
18 | 23 nM | COCCS(=O)(=O)C(C(=O)NCC(=O)NC1CC1)c1nc2cc(-c3ccn(C)c(=O)c3)c(F)cc2s1 (stereo not shown) [Example 342, N-[(cyclopropyl-carbamoyl)methyl]-2-[6-fluoro-5-(1-methyl-2-oxo-1,2-dihydropyridin-4-yl)-1,3-benzothiazol-2-yl]-2-(2-methoxyethane-sulfonyl)acetamide]
19 | 48 nM | COCCS(=O)(=O)C(C(=O)NCC(=O)NC1CC1)c1nc2ccc(-c3ccnc(OC)c3F)cc2s1 (stereo not shown) [Example 343, N-[(cyclopropyl-carbamoyl)methyl]-2-[6-(3-fluoro-2-methoxypyridin-4-yl)-1,3-benzothiazol-2-yl]-2-(2-methoxyethane-sulfonyl)acetamide]
20 | 98 nM | COCCS(=O)(=O)C(C(=O)NCC(=O)NC1CC1)c1nc2ccc(-c3ccc4c(c3)C(=O)NC4)cc2s1 (stereo not shown) [Example 344, N-[(cyclopropyl-carbamoyl)methyl]-2-(2-methoxyethane-sulfonyl)-2-[6-(3-oxo-2,3-dihydro-1H-isoindol-5-yl)-1,3-benzothiazol-2-yl]acetamide]
21 | 6 nM | COCCS(=O)(=O)C(C(=O)NCC(=O)NC1CC1)c1nc2cc(-c3cnc(C)nc3)c(F)cc2s1 (stereo not shown) [Example 346, N-[(cyclopropyl-carbamoyl)methyl]-2-[6-fluoro-5-(2-methylpyrimidin-5-yl)-1,3-benzothiazol-2-yl]-2-(2-methoxyethane-sulfonyl)acetamide]
22 | 18 nM | COCCS(=O)(=O)C(C(=O)NCC(=O)NC1CC1)c1nc2cc(-c3ccc4[nH]c(=O)ccc4c3)c(F)cc2s1 (stereo not shown) [Example 347, N-[(cyclopropyl-carbamoyl)methyl]-2-[6-fluoro-5-(2-oxo-1,2-dihydroquinolin-6-yl)-1,3-benzothiazol-2-yl]-2-(2-methoxyethane-sulfonyl)acetamide]
23 | 10 nM | COCCS(=O)(=O)C(C(=O)NCC(=O)NC1CC1)c1nc2cc(-c3cnc(C4CC4)nc3)c(F)cc2s1 (stereo not shown) [Example 348, N-[(cyclopropyl-carbamoyl)methyl]-2-[5-(2-cyclopropyl-pyrimidin-5-yl)-6-fluoro-1,3-benzothiazol-2-yl]-2-(2-methoxyethane-sulfonyl)acetamide]
24 | 42 nM | COCCS(=O)(=O)C(C(=O)NCC(=O)NC1CC1)c1nc2cc(-c3ccc4c(c3)CC(=O)N4)c(F)cc2s1 (stereo not shown) [Example 349, N-[(cyclopropyl-carbamoyl)methyl]-2-[6-fluoro-5-(2-oxo-2,3-dihydro-1H-indol-5-yl)-1,3-benzothiazol-2-yl]-2-(2-methoxyethane-sulfonyl)acetamide]
25 | 18 nM | COCCS(=O)(=O)C(C(=O)NCC(=O)NC1CC1)c1nc2cc(-c3ccc4c(c3)C(=O)NC4)c(F)cc2s1 (stereo not shown) [Example 350, N-[(cyclopropyl-carbamoyl)methyl]-2-[6-fluoro-5-(3-oxo-2,3-dihydro-1H-isoindol-5-yl)-1,3-benzothiazol-2-yl]-2-(2-methoxyethane-sulfonyl)acetamide]
26 | 36 nM | COCCS(=O)(=O)C(C(=O)NCC(=O)NC1CC1)c1nc2cc(-c3cnnc(C)c3)c(F)cc2s1 (stereo not shown) [Example 351, N-[(cyclopropyl-carbamoyl)methyl]-2-[6-fluoro-5-(6-methylpyridazin-4-yl)-1,3-benzothiazol-2-yl]-2-(2-methoxyethane-sulfonyl)acetamide]
27 | 24 nM | COCCS(=O)(=O)C(C(=O)NCC(=O)NCCOC(C)C)c1nc2cc(-c3ccc4c(c3)CNC4=O)c(F)cc2s1 (stereo not shown) [Example 354, 2-[6-fluoro-5-(1-oxo-2,3-dihydro-1H-isoindol-5-yl)-1,3-benzothiazol-2-yl]-2-(2-methoxyethane-sulfonyl)-N-({[2-(propan-2-yloxy)ethyl]carbamoyl}methyl)acetamide]
28 | 7 nM | CS(=O)(=O)C(C(=O)NCC(=O)NC1CC1)c1nc2cc(-c3ccc(F)nc3)c(F)cc2s1 (stereo not shown) [Example 359, N-[(cyclopropyl-carbamoyl)methyl]-2-[6-fluoro-5-(6-fluoropyridin-3-yl)-1,3-benzothiazol-2-yl]-2-methanesulfonyl-acetamide]
